Source: patent publication US6365634B1, “Naturally occurring compounds and their derivatives as cyclooxygenase 2 and/or 5-lipoxygenase inhibitors” (C-P Technology Limited Partnership, priority 1997, dated 2002)

Target: T1, ovine COX I (Ovis aries, UniProt P05979)
T1 construct: a ram seminal vesicle preparation enriched in COX I (Biomol) was used; tissue Biomol; host or cells: ram seminal vesicle
T1 sequence (P05979 25-600): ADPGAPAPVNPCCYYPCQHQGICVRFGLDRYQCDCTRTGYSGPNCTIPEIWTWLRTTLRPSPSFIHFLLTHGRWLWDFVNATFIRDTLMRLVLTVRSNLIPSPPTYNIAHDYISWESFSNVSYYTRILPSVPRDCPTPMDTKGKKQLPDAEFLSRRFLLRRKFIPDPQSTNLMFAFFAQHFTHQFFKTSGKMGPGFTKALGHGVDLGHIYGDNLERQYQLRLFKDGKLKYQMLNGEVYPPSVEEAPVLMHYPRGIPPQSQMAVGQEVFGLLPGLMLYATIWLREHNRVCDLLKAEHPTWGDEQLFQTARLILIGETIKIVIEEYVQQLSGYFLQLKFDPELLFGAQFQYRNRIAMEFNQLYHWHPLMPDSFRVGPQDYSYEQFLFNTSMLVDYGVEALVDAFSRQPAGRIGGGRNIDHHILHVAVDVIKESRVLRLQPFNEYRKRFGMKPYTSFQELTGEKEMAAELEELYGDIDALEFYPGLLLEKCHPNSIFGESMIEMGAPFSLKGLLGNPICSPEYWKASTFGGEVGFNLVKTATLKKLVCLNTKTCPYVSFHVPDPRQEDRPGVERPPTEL
Assay: COX I biochemical assay (ram seminal vesicle preparation)
Method: Both the COX I and COX II assays were performed using modified versions of previously reported methods (Corey, E. J., Shih, C., and Cashman, J. R., 1983 Proc. Natl. Acad. Sci. v80, p3; Sigal, E., Grunberger, D., Cashman, J. R., Craik, C. S., Caughey, G. H., and Nadel, J. A., 1988 Biochem. Biophys. Res Comm. v150(1), p376). To assess for the presence of compounds in the peat bog extracts that were capable of inhibiting COX II, purified human recombinant COX II (Oxford Chemical) was suspended in 50 uL of COX assay buffer (50 mM Tris, pH 8.0) containing 0.2 mM hydroquinone, 5.0 mM tryptophan, 1.0 uM hematin, and 1.0 mM glutathione. […]
The assessment of cyclooxygenase activity (both COX I and II) in the presence and absence of the peat bog extracts was based on the quantitation of tlhe radiolabeled arachidonic acid metabolites prostaglandin A2 (PGA2), PGE2, and PGF2-alpha. […] The bands were visualized by UV-vis or I2 staining and scraped into scintillation vials for quantitation. […] The total enzyme activity (At), the corrected enzyme activity in the presence of an inhibitor (Ai), and % inhibition were calculated by the following equations: […]
The inhibitory activity of dehydroabietic acid methyl ester was assessed by performing biochemical assays that utilized 1) human recombinant COX II, 2) ovine COX I, and 3) rabbit reticulocyte 15-LO. […]

SMILES | Percent Inhibition of COX I (pure 4-cumylphenol, assay as Example 2B, concentration not given) [%] | Percent Inhibition of COX I (final concentration of 250 uM) [%]
CC(C)(c1ccccc1)c1ccc(O)cc1 [4-Cumylphenol, 4-cumylphenol] | 1.6 | 
COC(=O)[C@]1(C)CCC[C@]2(C)c3ccc(C(C)C)cc3CC[C@@H]12 [Dehydroabietic acid methyl ester, dehydroabietic acid methyl ester] |  | 0.2
